Values of other authors as cited in patent publication US20190254579A1, “INTEGRATED DEVICES TO CONTINUOUSLY MEASURE BOUND AND UNBOUND ANALYTE FRACTIONS IN BIOFLUIDS” (Eccrine Systems, Inc., priority 2015, published 2019).
In brackets after ≈: the same amount, converted by molar mass. Like-named read-outs stand apart in the source and are kept apart here.

What was measured:
[1] = water/octanol

Row | SMILES | logP [1] | Solubility in Water (stated in words) | Solubility in Water [µg/mL]
1 | CCCCCC/C=C\CCCCCCCC(=O)O [Palmitoleic Acid] | 6.4 | Low | –
2 | CCCCC/C=C\C/C=C\C/C=C\C/C=C\CCCC(=O)O [Arachidonic Acid] | 7 | Negligible | –
3 | CCCCCCCC/C=C\CCCCCCCC(=O)O [Oleic Acid] | 7.64 | – | –
4 | CCCCC/C=C\C/C=C\CCCCCCCC(=O)OC(CO)CO [2-Linoleoyl Glycerol] | 5.6 | – | –
5 | CC(C)CCCC(C)CCCC(C)CCCC(C)CC(=O)O (stereo not shown) [Phytanic Acid] | 8.3 | – | –
6 | CCCCCC[C@@H](O)C/C=C\CCCCCCCC(=O)O [Ricinoleic Acid] | 5.7 | – | 3460 (≈ 11.6 mM)
7 | CCCC/C=C\CCCCCCCC(=O)O [Myristoleic Acid] | 5.1 | – | –
